Test results published in patent US8372839B2, “Bipartite inhibitors of bacterial RNA polymerase” (priority 2005, dated 2013).
Starred links: 1 amine or outer side, 2 acyl side, 3 side chain; linkers in the order of their positions; H or OH if unused. Positions of bridges follow the written chain, without caps; N, C: chain ends. Non-standard residues stand in square brackets, D forms with d. Residues, ends and D or L forms follow the SMILES beside them. *: point of attachment. X2 = CO[C@H]1/C=C/O[C@@]2(C)Oc3c(C)c(O)c4c(O)c(cc(OCC(=O)NCCCCCCCCCCCCN*)c4c3C2=O)NC(=O)/C(C)=C\C=C\[C@H](C)[C@H](O)[C@@H](C)[C@@H](O)[C@@H](C)[C@H](OC(C)=O)[C@@H]1C; X1 = N=C(CCCSCC(=O)[*:3])NCCCC[C@H](N[*:1])C(=O)[*:2]

What was measured:
Escherichia coli RNAP = target: T1, Escherichia coli RNAP (Escherichia coli, UniProt P0A8T7+P0A8V2); test: biochemical; assay type: biochemical; details: for inhibition of transcription (in words): transcription assay, RNAP and [Asn516]β-RNAP
T1 construct: made in house
Experimental: RNAP was prepared as described in Niu, et al. (1996) Cell 87, 1123-1134. [Asn516]β-RNAP, a strongly rifamycin-resistant RNAP derivative (see Jin, et al. (1988) J. Mol. Biol. 202, 45-58) was prepared in the same manner, except that plasmid pRL706-516N was used in place of plasmid pREII-NHα. [Plasmid pRL706-516N, which encodes C-terminally hexahistidine tagged [Asn516]β, was constructed from plasmid pRL706 (Severinov, et al. (1997) J. Biol. Chem. 272, 24137-24140) by use of site-directed mutagenesis (QuikChange Site-Directed Mutagenesis Kit; Stratagene).]
RNAP or [Asn516]β-RNAP (3 fmol; Example 3.1) and each test compound (250 fmol-100 pmol) were pre-equilibrated 30 min at 37° C. in 15 μl buffer A (50 mM Tris-HCl, pH 8.0, 100 mM KCl, 10 mM MgCl2, 1 mM dithiothreitol, 10 ug/ml bovine serum albumin, and 5% glycerol). To the reaction mixture, was added 1 μl of 1 μM DNA fragment comprising positions −60 to +46 of the bacteriophage T5 N25 promoter (1 pmol; prepared as in Revyakin, et al. (2006) Science, in press), and, following incubation 15 min at 37° C., RNA synthesis was initiated by addition of […] of 6.7 mM ATP and 30 μM α[^32P]-UTP (0.6 Bq/fmol). Following 10 min at 37° C., the reaction was terminated by addition of 10/j 80% formamide, 10 mM EDTA, 0.04% bromophenol blue, and 0.04% xylene cyanol. Reaction products were heated […] at 90° C. and were analyzed by urea-PAGE (Sambrook, et al. (2001) Molecular Cloning: A Laboratory Manual, CSHL Press, Cold Spring Harbor, N.Y.), and quantified using a storage-phosphor scanner.

[1] = system: Escherichia coli strain D21 f2/tolC; test: Susceptibility assay (spot on top agar); assay type: cell-based; details: for lowest concentration of test compound solution resulting in detectable inhibition of bacterial growth: 2.5 μl aliquots spotted, 12 h at 37° C.
Experimental: Aliquots (2.5 μl) of 1.56, 3.12, 6.25, 12.5, 25, 50, 100, 200, and 400 μM solutions of a test compound were spotted on plates containing Escherichia coli strain D21 f2/tolC (Fralick, et al. (1994) J. Bacteriol. 176, 6404-6406; ˜10^8 cells) in LB top agar (Sambrook, et al. (2001) Sambrook, et al. (2001) Molecular Cloning. A Laboratory Manual, CSHL Press, Cold Spring Harbor, N.Y.; 3.5 ml) overlaid on LB agar (Sambrook, et al. (2001) Sambrook, et al. (2001) Molecular Cloning: A Laboratory Manual, CSHL Press, Cold Spring Harbor, N.Y.; 25 ml).

[Asn516]β-RNAP = [Asn516]β-RNAP (Escherichia coli, UniProt P0A8T7+P0A8V2, D516N)
Experimental: Following 10 min at 37° C., the reaction was terminated by addition of 10/j 80% formamide, 10 mM EDTA, 0.04% bromophenol blue, and 0.04% xylene cyanol.

Row | Compound | inhibition of transcription (in words) (Escherichia coli RNAP) | lowest concentration of test compound solution resulting in detectable inhibition of bacterial growth [1] [µM] | other results
1 | CC[C@H](C)[C@H](NC(=O)CNC(=O)[C@@H](NC(=O)[C@H](Cc1ccccc1)NC(=O)[C@H](Cc1ccc(O)cc1)NC(=O)[C@@H]1CCC(=O)NCC(=O)NCC(=O)N[C@@H](C)C(=O)NCC(=O)N[C@@H](CCCCNC(=N)CCCSCC(=O)NCCCCCCCCCCCCNC(=O)COc2cc3c(O)c4c(O)c(C)c5c(c24)C(=O)[C@@](C)(O/C=C/[C@H](OC)[C@@H](C)[C@@H](OC(C)=O)[C@H](C)[C@H](O)[C@H](C)[C@@H](O)[C@@H](C)/C=C/C=C(/C)C(=O)N3)O5)C(=O)N[C@@H](C(C)C)C(=O)N2CCC[C@H]2C(=O)N1)C(C)C)C(=O)NCC(=O)N[C@H](C(=O)N1CCC[C@H]1C(=O)N[C@H](C(=O)N[C@@H](CO)C(=O)N[C@@H](Cc1ccccc1)C(=O)N[C@@H](Cc1ccc(O)cc1)C(=O)NCC(=O)O)[C@@H](C)CC)[C@@H](C)O [rifamicrocin 1-12, {rifamycin SV}—{CH2C(O)NH(CH2)12NHC(O)CH2S(CH2)3C(NH2^+)}-{[Lys5]microcin J25}] (GGAG[X1](X2)VPEYFVGIGTPISFYG-OH; lactam N-8 (inferred); C-terminus assumed) | potently to inhibit transcription |  | IC50 (Escherichia coli RNAP): 2 nM
2 | CO[C@H]1/C=C/O[C@@]2(C)Oc3c(C)c([O-])c4c(O)c(cc(O)c4c3C2=O)NC(=O)/C(C)=C\C=C\[C@H](C)[C@H](O)[C@@H](C)[C@@H](O)[C@@H](C)[C@H](OC(C)=O)[C@@H]1C.[Na+] [rifamycin SV, reference compound] |  | 50 | 
3 | {Rifamycin SV}—{CH2C(O)NH(CH2)nNHC(O)CH2S(CH2)3C(NH2^+)}-{[Lys5]MccJ25} [rifamicrocin 1-6] | potently to inhibit transcription |  | 
4 | {Rifamycin SV}—{CH2C(O)NH(CH2)nNHC(O)CH2S(CH2)3C(NH2^+)}-{[Lys5]MccJ25} [rifamicrocin 1-8] | potently to inhibit transcription |  | 
5 | {Rifamycin SV}—{CH2C(O)NH(CH2)nNHC(O)CH2S(CH2)3C(NH2^+)}-{[Lys5]MccJ25} [rifamicrocin 1-10] | potently to inhibit transcription | 12.5 | potency on bacterial growth relative to rifamycin SV ([1]; vs rifamycin SV): ~4 times higher
6 | {rifamycin SV}—{CH2C(O)NH(CH2)10NHC(O)(CH2)2(C2N3)(CH2)4C(O)}-{[Lys5]microcin J25} [rifamicrocin 2-10] | potently to inhibit transcription |  | potency relative to prior-art rifamycin B, [Asn516]β-RNAP ([Asn516]β-RNAP): approximately 2 times higher
